Consider 1 molecule from US20260306527A1, “PRMT INHIBITOR COMPOUNDS AND THE USES THEREOF” (Purdue Research Foundation, priority 2023, published 2026).

In general, ΔTm refers to the shift of the melting midpoint relative to a reference. What is called IC50 is the midpoint of a concentration-inhibition curve. The term inhibition denotes the percentage by which the read-out fell short of the control. Higher therefore signals strong suppression.

Test [1] deals with T1, PRMT1 (Homo sapiens, UniProt Q99873).
T1 construct: made in house
As to the kind of experiment: thermal shift assay PRMT1. The test is classed as binding. The following applies: 100 μM compound, 10 μM protein. The protocol:
The fluorescence-based thermal shift assay was performed using a StepOne plus qPCR instrument (Thermal Fisher). For PRMT1, 10 μM of protein was mixed with 2× sypro orange and DMSO, or 100 μM SAM, or 100 μM YD1113, or 100 μM YD1290 in a buffer consisting of 2.5 mM HEPES (pH=7.0), 25 mM NaCl, 25 μM EDTA, 50 μM TCEP, 0.01% Triton X-100. For PRMT3, 20 μM of protein was mixed with 2× sypro orange and DMSO, or 100 μM SAM, or 100 μM YD1113, or 100 μM YD1290 in a buffer consisting of 20 mM Tris (pH=7.5), 0.01% Triton X-100. For PRMT4, 20 μM of protein was mixed with 2× sypro orange and DMSO, or 100 μM SAM, or 100 μM YD1113, or 100 μM YD1290 in a buffer consisting of 20 mM bicine (pH=8.5), 0.01% Triton X-100. All samples were heated from 25° C. to 75° C. at an increased rate of 0.5° C. per minute. Protein denaturation was monitored by the increased fluorescence signal of Sypro Orange, which captures exposed hydrophobic residues during thermal unfolding. The recorded curves were analyzed by the software StepOne plus and plotted in GraphPad Prism 8 software.
Next, the thermal shift assay (TSA) was conducted as an orthogonal method to examine the effects of YD1290 on the thermal stability of PRMT1, 3, and 4 (Figure S1).

The target in test [2] is PRMT5 (Homo sapiens, UniProt O14744). As to the kind of experiment: selectivity of YD1113 on PRMT panel, PRMT5. Type of test: biochemical. To be noted: read-out: IC50 value PRMT5. The protocol:
The selectivity of compounds YD1113 and YD1290 on PRMTs were performed by Reaction Biology Corp.
Next, the selectivity of YD1113 was investigated on a panel of PRMTs at 10 μM.

The target of test [3] is PRMT8 (Homo sapiens, UniProt Q9NR22). As to the kind of experiment: selectivity of YD1113/YD1290 on PRMT panel, PRMT8. The test is classed as biochemical. To be noted: 10 μM; PRMT panel. In short, it runs like this:
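Radioactivity-based PRMT activity assay run by an external provider; YD1113 profiled across the PRMT panel at 10 μM.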

A value given as a limit tells only on which side of the number the result lay.

Chain of PRMT8 (Q9NR22 whole entry, species assumed): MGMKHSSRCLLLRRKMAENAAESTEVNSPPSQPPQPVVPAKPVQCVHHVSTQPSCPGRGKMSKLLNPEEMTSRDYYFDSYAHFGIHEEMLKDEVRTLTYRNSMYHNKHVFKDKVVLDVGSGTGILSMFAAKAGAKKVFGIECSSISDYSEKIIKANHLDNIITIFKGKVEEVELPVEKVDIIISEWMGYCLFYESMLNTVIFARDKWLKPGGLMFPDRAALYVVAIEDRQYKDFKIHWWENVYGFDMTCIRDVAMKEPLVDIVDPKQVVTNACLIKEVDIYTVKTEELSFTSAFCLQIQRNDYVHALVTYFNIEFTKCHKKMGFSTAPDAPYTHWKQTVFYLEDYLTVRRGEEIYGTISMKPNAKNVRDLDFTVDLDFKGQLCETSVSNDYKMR
T1 sequence (Q99873 whole entry, species assumed): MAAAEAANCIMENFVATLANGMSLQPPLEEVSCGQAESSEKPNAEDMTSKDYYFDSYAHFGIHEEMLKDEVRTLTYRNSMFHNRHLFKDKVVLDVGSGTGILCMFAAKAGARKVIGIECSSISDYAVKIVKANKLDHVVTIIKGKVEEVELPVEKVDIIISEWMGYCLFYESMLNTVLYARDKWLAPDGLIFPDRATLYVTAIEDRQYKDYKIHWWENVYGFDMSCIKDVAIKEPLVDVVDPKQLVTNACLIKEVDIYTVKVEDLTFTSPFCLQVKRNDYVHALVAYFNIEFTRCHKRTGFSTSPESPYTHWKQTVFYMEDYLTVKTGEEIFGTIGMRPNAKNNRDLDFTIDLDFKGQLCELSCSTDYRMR
Chain of PRMT5 (O14744 whole entry, species assumed): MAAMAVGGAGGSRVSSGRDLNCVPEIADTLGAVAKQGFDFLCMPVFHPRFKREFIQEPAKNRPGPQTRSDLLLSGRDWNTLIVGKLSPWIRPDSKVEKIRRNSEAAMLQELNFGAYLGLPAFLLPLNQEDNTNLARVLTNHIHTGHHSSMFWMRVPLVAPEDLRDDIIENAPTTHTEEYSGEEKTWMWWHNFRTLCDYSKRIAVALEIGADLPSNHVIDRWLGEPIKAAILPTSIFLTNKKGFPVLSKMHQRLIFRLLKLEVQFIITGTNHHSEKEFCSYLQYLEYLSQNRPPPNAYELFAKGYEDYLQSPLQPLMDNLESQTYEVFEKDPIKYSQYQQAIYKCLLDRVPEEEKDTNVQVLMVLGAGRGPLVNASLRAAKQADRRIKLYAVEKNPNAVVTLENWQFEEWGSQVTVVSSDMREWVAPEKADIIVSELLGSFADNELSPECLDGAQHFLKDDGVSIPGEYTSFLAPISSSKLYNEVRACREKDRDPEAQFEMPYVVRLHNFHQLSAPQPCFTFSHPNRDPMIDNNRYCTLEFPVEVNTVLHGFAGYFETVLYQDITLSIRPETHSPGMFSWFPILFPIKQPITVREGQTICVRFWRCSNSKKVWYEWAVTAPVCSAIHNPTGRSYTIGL
Chain of PRMT5 (Q9BQA1 whole entry partner, species assumed): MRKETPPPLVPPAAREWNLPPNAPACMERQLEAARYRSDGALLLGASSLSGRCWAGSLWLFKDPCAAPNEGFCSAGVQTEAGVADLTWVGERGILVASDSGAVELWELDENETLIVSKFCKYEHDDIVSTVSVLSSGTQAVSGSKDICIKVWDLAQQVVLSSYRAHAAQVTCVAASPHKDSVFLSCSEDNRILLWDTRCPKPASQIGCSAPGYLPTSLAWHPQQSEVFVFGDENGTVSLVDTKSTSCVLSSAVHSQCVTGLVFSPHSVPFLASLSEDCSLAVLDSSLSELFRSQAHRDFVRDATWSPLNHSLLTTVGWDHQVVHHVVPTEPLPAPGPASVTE

Regarding `Nc1ncnc2c1ncn2[C@@H]1O[C@H](CSCCNC(=O)NCc2ccccc2)[C@@H](O)[C@H]1O` [Compound 7a, 1-(2-((((2S,3S,4R,5R)-5-(6-amino-9H-purin-9-yl)-3,4-dihydroxytetrahydrofuran-2-yl)methyl)thio)ethyl)-3-benzylurea], the ΔTm at 100 µM in test [1] came out at 0.6 °C. The half-maximal inhibitory concentration (IC50) in test [2] is 351 nM. In test [3], this molecule displayed an inhibition at 10 µM below 35%.
